Assay results from US9512128B2 (BAYER CROPSCIENCE AG, priority 2012, dated 2016).
Like-named read-outs stand apart in the source and are kept apart here.

Columns and labels:
[1] = system: greenhouse red spider mite (Tetranychus urticae); test: Tetranychus urticae spray test, OP-resistant (TETRUR); format: in vivo; conditions: application rate 500 g/ha, after 6 days, bean leaf discs
Procedure: 4. Tetranychus urticae Spray Test, OP-Resistant (TETRUR)
• Solvents: 78.0 parts by weight of acetone • 1.5 part by weight of dimethylformamide • Emulsifier: 0.5 part by weight of alkylaryl polyglycol ether
To produce a suitable preparation of active compound, 1 part by weight of active compound is mixed with the stated amounts of solvents and emulsifier, and the concentrate is diluted with emulsifier-containing water to the desired concentration.
Discs of bean leaves (Phaseolus vulgaris) which are infested by all stages of the greenhouse red spider mite (Tetranychus urticae) are sprayed with an active compound preparation of the desired concentration.
After 6 days, the efficacy in % is determined. 100% means that all of the spider mites have been killed; 0% means that none of the spider mites have been killed.

[2] = log P by HPLC on reversed-phase columns (C 18), EEC directive 79/831 Annex V.A8; format: physicochemical
Procedure: The log P values were determined according to EEC directive 79/831 Annex V.A8 by HPLC (High Performance Liquid Chromatography) on reversed-phase columns (C 18), using the methods below:
[a] The LC-MS determination in the acidic range is carried out at pH 2.7 with 0.1% aqueous formic acid and acetonitrile (contains 0.1% formic acid) as mobile phases; linear gradient from 10% acetonitrile to 95% acetonitrile.
[b] The LC-MS determination in the neutral range is carried out at pH 7.8 using the mobile phases 0.001 molar aqueous ammonium bicarbonate solution and acetonitrile; linear gradient from 10% acetonitrile to 95% acetonitrile.

[3] = acidic range, pH 2.7, 0.1% aqueous formic acid / acetonitrile, read-out: log P[a]
[4] = neutral range, pH 7.8, 0.001 molar aqueous ammonium bicarbonate / acetonitrile, read-out: log P[b]
[5] = reversed-phase C18 HPLC column, pH 2.7, acidic range, pH 2.7, 0.1% aqueous formic acid / acetonitrile, read-out: log P[a]
[6] = reversed-phase C18 HPLC column, pH 7.8, neutral range, pH 7.8, 0.001 molar aqueous ammonium bicarbonate / acetonitrile, read-out: log P[b]

SMILES	efficacy in % (spider mites killed) [1]	also measured
CCn1cc2c(=O)n(-c3cc(SCC(F)(F)F)c(C)cc3F)cnc2n1 [Compound 176]	90%	
Cc1cc(F)c(-n2cnc3ncn(C)c3c2=O)cc1[S+]([O-])CC(F)(F)F (stereo not shown) [Compound 178]	100%	
Cc1cc(F)c(-n2cnc3c(ncn3C)c2=O)cc1[S+]([O-])CC(F)(F)F (stereo not shown) [Compound 179]	100%	
Cc1cc(F)c(-n2cnc3c(C)nsc3c2=O)cc1SCC(F)(F)F [Compound 180]	90%	
Cc1nc2c(=O)n(-c3cc([S+]([O-])CC(F)(F)F)c(C)cc3F)c(C)nc2s1 (stereo not shown) [Compound 185]	90%	
Cc1nc2c(=O)n(-c3cc([S+]([O-])CC(F)(F)F)c(C)cc3C)c(C)nc2s1 (stereo not shown) [Compound 186]	90%	
Cc1nc2c(=O)n(-c3cc(SCC(F)(F)F)c(C)cc3F)cnc2s1 [Compound 189]	90%	
Cc1nc2c(=O)n(-c3cc([S+]([O-])CC(F)(F)F)c(C)cc3F)cnc2s1 (stereo not shown) [Compound 190]	90%	
Cc1cc(F)c(-n2cnc3nsc(C(C)(C)C)c3c2=O)cc1[S+]([O-])CC(F)(F)F (stereo not shown) [Compound 192]	90%	
Cc1cc(F)c(-n2cnc3onc(C(C)C)c3c2=O)cc1SCC(F)(F)F [Compound 193]	100%	
Cc1cc(F)c(-n2cnc3onc(C(F)(F)F)c3c2=O)cc1SCC(F)(F)F [Compound 197]	100%	
CCc1nsc2ncn(-c3cc([S+]([O-])CC(F)(F)F)c(C)cc3F)c(=O)c12 (stereo not shown) [Compound 203]	100%	
Cc1cc(F)c(-n2cnc3c(C)n(C)nc3c2=O)cc1SCC(F)(F)F [Compound 213]	100%	
Cc1cc(F)c(-n2cnc3c(C)n(C)nc3c2=O)cc1[S+]([O-])CC(F)(F)F (stereo not shown) [Compound 214]	90%	
Cc1cc(F)c(-n2cnc3cn(C)nc3c2=O)cc1[S+]([O-])CC(F)(F)F (stereo not shown) [Compound 216]	100%	
Cc1cc(F)c(-n2cnc3csc(C)c3c2=O)cc1SCC(F)(F)F [Compound 217]	90%	
Cc1cc(F)c(-n2cnc3csc(C)c3c2=O)cc1[S+]([O-])CC(F)(F)F (stereo not shown) [Compound 218]	90%	
Cc1cc(F)c(-n2cnc3c(C)scc3c2=O)cc1SCC(F)(F)F [Compound 219]	100%	
Cc1cc(F)c(-n2cnc3c(C)scc3c2=O)cc1[S+]([O-])CC(F)(F)F (stereo not shown) [Compound 220]	90%	
Cc1cc2ncn(-c3cc([S+]([O-])CC(F)(F)F)c(C)cc3F)c(=O)c2o1 (stereo not shown) [Compound 222]	100%	
O=[N+]([O-])c1cc(SSc2ccc(Cl)c([N+](=O)[O-])c2)ccc1Cl [XIX-4, 1,1′-Disulphanediylbis(4-chloro-3-nitrobenzene)]		chromatographic logP ([2]; pH 2.7, log P[a]): 4.58; chromatographic logP ([2]; pH 7.8, log P[b]): 4.58
O=[N+]([O-])c1cc(SSc2ccc(F)c([N+](=O)[O-])c2)ccc1F [XIX-5, 1,1′-Disulphanediylbis(4-fluoro-3-nitrobenzene)]		chromatographic logP [2, 3]: 3.83; chromatographic logP [2, 4]: 3.79
O=[N+]([O-])c1cc(SSc2cc([N+](=O)[O-])c(Cl)cc2Cl)c(Cl)cc1Cl [XIX-6, 1,1′-Disulphanediylbis(2,4-dichloro-5-nitrobenzene)]		chromatographic logP [2, 3]: 5.69; chromatographic logP [2, 4]: 5.64
Cc1cc(F)c(N)cc1S [XVI-1, 5-Amino-4-fluoro-2-methylbenzenethiol]		chromatographic logP [2, 5]: 3.7
Nc1ccc(Cl)c(S)c1 [XVI-3, 5-Amino-2-chlorobenzenethiol]		chromatographic logP [2, 5]: 1.64
CC(=O)Nc1cc(SC(C)=O)c(C)cc1F [XVII-1, S-(5-Acetamido-4-fluoro-2-methylphenyl)ethanethioate]		chromatographic logP [2, 5]: 1.78
Nc1ccc(Cl)c(SSc2cc(N)ccc2Cl)c1 [XVIII-3, 3,3′-Disulphanediylbis(4-chloroaniline)]		chromatographic logP [2, 5]: 3.31; chromatographic logP [2, 6]: 3.35
Nc1cc(SSc2ccc(Cl)c(N)c2)ccc1Cl [XVIII-4, 3,3′-Disulphanediylbis(6-chloroaniline)]		chromatographic logP [2, 5]: 3.84; chromatographic logP [2, 6]: 3.83
Nc1cc(SSc2ccc(F)c(N)c2)ccc1F [XVIII-5, 3,3′-Disulphanediylbis(6-fluoroaniline)]		chromatographic logP [2, 5]: 2.98; chromatographic logP [2, 6]: 2.97
Nc1cc(SSc2cc(N)c(Cl)cc2Cl)c(Cl)cc1Cl [XVIII-6, 3,3′-Disulphanediylbis(4,6-dichloroaniline)]		chromatographic logP [2, 5]: 5.14; chromatographic logP [2, 6]: 4.95
